The text below walks through data of ChEMBL document CHEMBL5113372, “Paradigm shift of "classical" HDAC inhibitors to "hybrid" HDAC inhibitors in therapeutic interventions” (Eur J Med Chem, 2021).

In assay [1] the target is T1, Protein deacetylase HDAC6 (Homo sapiens, UniProt Q9UBN7).
T1 sequence (Q9UBN7 whole entry): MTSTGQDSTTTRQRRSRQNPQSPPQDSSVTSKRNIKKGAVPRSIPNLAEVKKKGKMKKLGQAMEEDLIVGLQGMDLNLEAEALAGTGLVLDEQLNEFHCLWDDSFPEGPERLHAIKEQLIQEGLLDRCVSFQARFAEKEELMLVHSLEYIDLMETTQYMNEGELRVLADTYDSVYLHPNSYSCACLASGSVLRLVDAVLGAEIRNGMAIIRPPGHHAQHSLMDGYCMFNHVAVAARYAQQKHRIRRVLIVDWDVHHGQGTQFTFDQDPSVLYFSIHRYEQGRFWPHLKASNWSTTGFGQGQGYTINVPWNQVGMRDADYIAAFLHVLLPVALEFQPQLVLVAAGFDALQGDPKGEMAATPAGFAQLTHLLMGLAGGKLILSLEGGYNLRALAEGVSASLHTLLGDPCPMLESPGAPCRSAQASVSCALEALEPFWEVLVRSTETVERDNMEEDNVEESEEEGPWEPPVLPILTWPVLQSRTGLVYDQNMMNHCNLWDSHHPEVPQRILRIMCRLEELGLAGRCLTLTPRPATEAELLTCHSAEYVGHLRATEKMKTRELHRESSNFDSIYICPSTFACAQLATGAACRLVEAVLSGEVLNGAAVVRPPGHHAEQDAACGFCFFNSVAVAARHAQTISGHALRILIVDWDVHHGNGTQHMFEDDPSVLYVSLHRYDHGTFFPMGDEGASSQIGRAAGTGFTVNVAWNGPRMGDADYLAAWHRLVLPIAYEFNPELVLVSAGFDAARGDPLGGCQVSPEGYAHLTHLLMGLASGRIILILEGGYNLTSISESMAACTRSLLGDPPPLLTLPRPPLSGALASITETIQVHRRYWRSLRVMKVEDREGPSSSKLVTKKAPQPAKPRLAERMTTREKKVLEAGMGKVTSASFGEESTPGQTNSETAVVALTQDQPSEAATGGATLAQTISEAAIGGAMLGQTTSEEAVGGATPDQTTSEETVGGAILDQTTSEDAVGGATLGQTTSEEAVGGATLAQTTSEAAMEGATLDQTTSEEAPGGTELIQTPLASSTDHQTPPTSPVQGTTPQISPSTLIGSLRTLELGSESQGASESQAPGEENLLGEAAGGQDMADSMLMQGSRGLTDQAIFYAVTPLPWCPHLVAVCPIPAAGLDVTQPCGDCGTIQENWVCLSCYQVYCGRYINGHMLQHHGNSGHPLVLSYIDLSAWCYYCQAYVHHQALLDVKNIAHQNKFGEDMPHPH
As to the kind of experiment: Inhibition of full-length recombinant human HDAC6 (1 to 1215 residues) expressed in Sf9 insect cells using fluorogenic substrate incubated for 30 mins by fluorescence based plate reader analysis.

Assay [2] concerns the target T2, High affinity cGMP-specific 3',5'-cyclic phosphodiesterase 9A (Homo sapiens, UniProt O76083). As to the kind of experiment: Inhibition of N-terminal GST-tagged full-length human PDE9A2 expressed in baculovirus infected Sf9 insect cells using cGMP as substrate incubated for 30 mins by HTRF assay.
Assay [3] concerns the target T3, cGMP-specific 3',5'-cyclic phosphodiesterase (Homo sapiens, UniProt O76074). As to the kind of experiment: Inhibition of N-terminal GST-tagged full-length recombinant human PDE5A1 (1 to 875 residues) expressed in Sf9 insect cells using cGMP as substrate incubated for 30 mins by HTRF assay.
Assay [4] deals with T4, Histone deacetylase 1 (Homo sapiens, UniProt Q13547). As to the kind of experiment: Inhibition of C-terminal 6xHis/FLAG-tagged full-length recombinant human HDAC1 (1 to 482 residues) expressed in Sf9 insect cells using fluorogenic substrate incubated for 30 mins by fluorescence based plate reader analysis.
Assay [5] deals with T4, Histone deacetylase 1. As to the kind of experiment: Inhibition of HDAC1 (unknown origin).
Assay [6] concerns the target T5, Histone deacetylase 2 (Homo sapiens, UniProt Q92769). As to the kind of experiment: Inhibition of HDAC2 (unknown origin).
Assay [7] has as its target T2, High affinity cGMP-specific 3',5'-cyclic phosphodiesterase 9A. As to the kind of experiment: Inhibition of PDE9 (unknown origin).
Assay [8] in a line: Inhibition of PDE5 (unknown origin). More on the design: species or system Homo sapiens.
In assay [9] the target is T1, Protein deacetylase HDAC6. As to the kind of experiment: Inhibition of HDAC6 (unknown origin).
Assay [10] deals with Protein kinase C alpha type (Mus musculus, UniProt P20444). As to the kind of experiment: Binding affinity to mouse PKC-alpha assessed as inhibition constant.
Assay [11] has as its target Phosphatidylinositol 4,5-bisphosphate 3-kinase catalytic subunit alpha isoform (Homo sapiens, UniProt P42336). As to the kind of experiment: Inhibition of PI3K-alpha (unknown origin).
In assay [12] the target is 72 kDa type IV collagenase (Homo sapiens, UniProt P08253). As to the kind of experiment: Inhibition of MMP2 (unknown origin) using chromogenic substrate incubated for 1 hr followed by substrate addition measured for 30 mins by microplate photometry.
For assay [13], the system named is A549. As to the kind of experiment: Antiinvasive activity against human A549 cells assessed as reduction in cell invasion incubated for 24 hrs by microplate reader analysis relative to control. It is filed as functional. Also on record: scale not given: the % may be the effect or the level left.
For another assay, the target named is T6, Histone deacetylase 8 (Homo sapiens, UniProt Q9BY41).
T6 sequence (Q9BY41 whole entry): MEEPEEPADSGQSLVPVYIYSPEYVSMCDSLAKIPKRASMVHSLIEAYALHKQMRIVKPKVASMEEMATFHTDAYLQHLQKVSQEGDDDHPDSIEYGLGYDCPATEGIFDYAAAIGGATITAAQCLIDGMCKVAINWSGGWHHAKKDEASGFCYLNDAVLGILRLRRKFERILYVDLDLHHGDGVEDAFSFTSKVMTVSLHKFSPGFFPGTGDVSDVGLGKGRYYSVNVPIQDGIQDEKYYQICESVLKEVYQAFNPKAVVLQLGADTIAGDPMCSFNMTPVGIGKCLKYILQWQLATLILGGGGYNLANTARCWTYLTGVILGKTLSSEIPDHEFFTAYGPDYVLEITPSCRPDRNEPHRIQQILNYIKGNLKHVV
As to the kind of experiment: Inhibition of recombinant human HDAC8 using Fluor-de-lys substrate by fluorescence based microplate reader analysis.

For assay [14], the target named is T3, cGMP-specific 3',5'-cyclic phosphodiesterase. As to the kind of experiment: Inhibition of PDE5A (unknown origin).
In assay [15] the target is T5, Histone deacetylase 2. As to the kind of experiment: Inhibition of recombinant human HDAC2 expressed in baculovirus infected Hi-5 insect cells using Ac-Lys-Tyr-Lys (epsilon-acetyl)-AMC as substrate incubated for 3 to 24 hrs by fluorescence based plate reader analysis.
Assay [16] concerns the target T4, Histone deacetylase 1. As to the kind of experiment: Inhibition of recombinant human HDAC1 expressed in baculovirus infected Hi-5 insect cells using Ac-Lys-Tyr-Lys (epsilon-acetyl)-AMC as substrate incubated for 3 to 24 hrs by fluorescence based plate reader analysis.
Assay [17] has as its system A549. As to the kind of experiment: Cytotoxicity against human A549 cells assessed as inhibition of cell proliferation incubated for 72 hrs by MTT assay. It is filed as functional, cell-based. To be noted: A549, 72 h.
A further assay has as its system HCT-116. As to the kind of experiment: Cytotoxicity against human HCT-116 cells assessed as inhibition of cell proliferation incubated for 72 hrs by MTT assay. It counts as functional, cell-based. To be noted: HCT-116, 72 h.
The next assay deals with Histone deacetylase 3 (Homo sapiens, UniProt O15379). As to the kind of experiment: Inhibition of recombinant human HDAC3 expressed in baculovirus infected Hi-5 insect cells using Ac-Lys-Tyr-Lys (epsilon-acetyl)-AMC as substrate incubated for 3 to 24 hrs by fluorescence based plate reader analysis.
In the next assay the test system is DU-145. As to the kind of experiment: Antiproliferative activity against human DU-145 cells assessed as cell growth inhibition incubated for 48 hrs by MTT assay. It counts as functional, cell-based. To be noted: DU-145, 48 h.
The next assay has as its system HepG2. As to the kind of experiment: Antiproliferative activity against human HepG2 cells assessed as cell growth inhibition incubated for 48 hrs by MTT assay. It is filed as functional, cell-based. To be noted: HepG2, 48 h.
The target of assay [18] is T4, Histone deacetylase 1. As to the kind of experiment: Inhibition of full-length recombinant human HDAC1 expressed in baculovirus infected Hi-5 insect cells using AcLys-Tyr-Lys(e-acetyl)-AMC as substrate incubated for 24 hrs by enzymatic assay.
In another assay the test system is K562. As to the kind of experiment: Antiproliferative activity against human K562 cells assessed as cell growth inhibition incubated for 48 hrs by MTT assay. It is filed as functional, cell-based. To be noted: K562, 48 h.

Structures are written as SMILES.

T4 sequence (Q13547 whole entry, the tested form may be a part): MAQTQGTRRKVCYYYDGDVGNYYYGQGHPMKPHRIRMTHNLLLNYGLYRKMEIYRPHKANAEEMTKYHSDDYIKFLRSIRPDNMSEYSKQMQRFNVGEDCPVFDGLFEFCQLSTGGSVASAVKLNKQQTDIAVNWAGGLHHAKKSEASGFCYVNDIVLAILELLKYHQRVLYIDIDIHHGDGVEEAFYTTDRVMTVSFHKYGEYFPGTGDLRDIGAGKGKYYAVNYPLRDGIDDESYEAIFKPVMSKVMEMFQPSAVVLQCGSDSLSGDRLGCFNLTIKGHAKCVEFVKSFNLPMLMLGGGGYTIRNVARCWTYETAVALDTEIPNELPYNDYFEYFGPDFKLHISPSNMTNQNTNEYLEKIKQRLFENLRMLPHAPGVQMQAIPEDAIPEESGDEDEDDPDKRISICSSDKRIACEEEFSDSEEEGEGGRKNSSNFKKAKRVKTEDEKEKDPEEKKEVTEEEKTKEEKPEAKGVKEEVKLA
T5 sequence (Q92769 whole entry): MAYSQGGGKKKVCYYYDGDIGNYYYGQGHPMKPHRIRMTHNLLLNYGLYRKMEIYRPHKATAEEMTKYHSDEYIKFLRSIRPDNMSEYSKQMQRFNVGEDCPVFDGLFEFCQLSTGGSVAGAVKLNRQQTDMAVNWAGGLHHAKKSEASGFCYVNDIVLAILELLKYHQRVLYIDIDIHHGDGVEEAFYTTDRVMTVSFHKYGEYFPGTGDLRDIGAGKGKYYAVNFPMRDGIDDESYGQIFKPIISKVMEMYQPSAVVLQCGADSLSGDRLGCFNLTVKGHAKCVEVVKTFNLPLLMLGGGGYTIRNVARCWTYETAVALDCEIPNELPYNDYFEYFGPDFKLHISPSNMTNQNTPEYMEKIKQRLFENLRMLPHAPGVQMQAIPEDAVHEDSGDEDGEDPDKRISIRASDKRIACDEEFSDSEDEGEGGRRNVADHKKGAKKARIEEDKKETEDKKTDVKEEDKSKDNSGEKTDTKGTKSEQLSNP
Sequence of Phosphatidylinositol 4,5-bisphosphate 3-kinase catalytic subunit alpha isoform (P42336 whole entry, canonical isoform): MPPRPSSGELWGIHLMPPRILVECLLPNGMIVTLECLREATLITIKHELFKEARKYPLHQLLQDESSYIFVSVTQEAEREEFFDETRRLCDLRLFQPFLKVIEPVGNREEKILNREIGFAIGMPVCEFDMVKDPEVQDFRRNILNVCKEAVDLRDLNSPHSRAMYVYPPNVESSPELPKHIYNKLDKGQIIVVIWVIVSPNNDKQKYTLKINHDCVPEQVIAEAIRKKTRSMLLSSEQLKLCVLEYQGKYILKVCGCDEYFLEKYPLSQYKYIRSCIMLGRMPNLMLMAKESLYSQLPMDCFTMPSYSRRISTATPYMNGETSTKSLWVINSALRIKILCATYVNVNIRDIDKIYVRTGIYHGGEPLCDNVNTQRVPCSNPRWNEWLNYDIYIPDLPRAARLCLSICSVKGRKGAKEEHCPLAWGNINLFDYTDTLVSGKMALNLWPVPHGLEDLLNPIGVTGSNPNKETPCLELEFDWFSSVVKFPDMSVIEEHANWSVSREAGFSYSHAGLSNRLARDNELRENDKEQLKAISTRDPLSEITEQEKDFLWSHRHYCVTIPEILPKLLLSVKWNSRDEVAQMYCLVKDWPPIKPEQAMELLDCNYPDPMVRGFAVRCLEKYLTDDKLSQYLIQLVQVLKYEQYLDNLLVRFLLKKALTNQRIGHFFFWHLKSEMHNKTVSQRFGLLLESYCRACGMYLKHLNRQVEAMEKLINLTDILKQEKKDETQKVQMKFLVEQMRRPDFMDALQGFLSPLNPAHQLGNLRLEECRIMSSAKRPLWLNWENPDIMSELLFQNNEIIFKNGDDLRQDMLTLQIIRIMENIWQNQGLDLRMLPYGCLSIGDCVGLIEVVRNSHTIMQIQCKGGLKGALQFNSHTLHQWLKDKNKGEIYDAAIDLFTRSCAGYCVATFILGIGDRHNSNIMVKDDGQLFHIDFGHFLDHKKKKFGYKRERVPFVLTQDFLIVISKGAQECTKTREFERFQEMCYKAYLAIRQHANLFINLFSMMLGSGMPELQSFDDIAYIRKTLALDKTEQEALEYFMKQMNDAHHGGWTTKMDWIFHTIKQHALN
Sequence of 72 kDa type IV collagenase (P08253 whole entry): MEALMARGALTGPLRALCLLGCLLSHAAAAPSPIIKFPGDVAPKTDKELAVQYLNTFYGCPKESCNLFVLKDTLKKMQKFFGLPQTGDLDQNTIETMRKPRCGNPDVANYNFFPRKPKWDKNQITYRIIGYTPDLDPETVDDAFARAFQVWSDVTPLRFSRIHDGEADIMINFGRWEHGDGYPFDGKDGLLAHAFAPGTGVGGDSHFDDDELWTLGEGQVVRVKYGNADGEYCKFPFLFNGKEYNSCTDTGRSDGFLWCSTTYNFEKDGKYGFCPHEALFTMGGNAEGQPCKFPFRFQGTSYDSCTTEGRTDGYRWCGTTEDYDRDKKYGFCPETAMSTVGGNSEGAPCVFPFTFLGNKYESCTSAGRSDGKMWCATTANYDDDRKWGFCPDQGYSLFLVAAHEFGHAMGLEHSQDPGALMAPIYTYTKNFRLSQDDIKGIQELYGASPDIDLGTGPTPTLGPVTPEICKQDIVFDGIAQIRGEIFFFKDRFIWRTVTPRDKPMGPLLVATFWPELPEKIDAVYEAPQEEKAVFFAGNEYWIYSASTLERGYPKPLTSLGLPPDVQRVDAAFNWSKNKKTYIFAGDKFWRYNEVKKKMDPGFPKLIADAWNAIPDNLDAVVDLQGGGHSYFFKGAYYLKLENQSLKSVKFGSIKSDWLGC
T2 sequence (O76083 whole entry, the tested form may be a part): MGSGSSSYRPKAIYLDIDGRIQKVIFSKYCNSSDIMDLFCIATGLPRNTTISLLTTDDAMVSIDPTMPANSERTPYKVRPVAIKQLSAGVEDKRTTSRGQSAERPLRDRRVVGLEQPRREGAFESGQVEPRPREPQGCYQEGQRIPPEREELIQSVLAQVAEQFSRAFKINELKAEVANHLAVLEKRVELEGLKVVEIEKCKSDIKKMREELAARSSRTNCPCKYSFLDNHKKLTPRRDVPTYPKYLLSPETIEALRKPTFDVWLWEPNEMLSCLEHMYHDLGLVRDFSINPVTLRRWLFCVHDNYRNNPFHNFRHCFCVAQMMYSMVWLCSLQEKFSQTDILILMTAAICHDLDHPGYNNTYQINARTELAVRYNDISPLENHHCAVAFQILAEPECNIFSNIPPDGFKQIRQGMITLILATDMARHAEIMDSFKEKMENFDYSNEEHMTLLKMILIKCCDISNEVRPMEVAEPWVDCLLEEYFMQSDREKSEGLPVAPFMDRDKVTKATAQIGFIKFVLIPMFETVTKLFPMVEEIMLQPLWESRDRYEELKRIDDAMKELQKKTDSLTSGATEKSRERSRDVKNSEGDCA
Sequence of Histone deacetylase 3 (O15379 whole entry): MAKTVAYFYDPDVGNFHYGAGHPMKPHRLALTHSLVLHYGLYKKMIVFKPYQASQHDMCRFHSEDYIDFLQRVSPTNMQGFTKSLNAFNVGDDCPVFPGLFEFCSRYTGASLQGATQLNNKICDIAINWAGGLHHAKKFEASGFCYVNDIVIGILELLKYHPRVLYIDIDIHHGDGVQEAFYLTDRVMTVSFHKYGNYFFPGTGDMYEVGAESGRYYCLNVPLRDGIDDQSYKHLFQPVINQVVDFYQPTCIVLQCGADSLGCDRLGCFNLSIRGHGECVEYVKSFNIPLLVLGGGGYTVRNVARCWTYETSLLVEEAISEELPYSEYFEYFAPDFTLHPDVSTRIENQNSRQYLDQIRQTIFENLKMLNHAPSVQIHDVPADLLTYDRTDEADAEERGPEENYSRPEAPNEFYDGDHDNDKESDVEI

In the case of `CCCc1nn(C)c2c(=O)[nH]c(-c3cc(CC4CC(C(=O)NO)C4)ccc3OCC)nc12` (stereo not drawn), the half-inhibitory concentration (IC50) in assay [1] is 0.081 µM; in assay [2], greater than 10 µM; in assay [3], 0.06 µM; on Histone deacetylase 1 [4], 0.31 µM.
On to `C[C@H]1CN(Cc2ccc(/C=C/C(=O)NO)cc2)C[C@@H]1c1nc2c(cnn2C2CCOCC2)c(=O)[nH]1`, for which the IC50 is 0.138 µM against Histone deacetylase 1 [5]; 1.25 µM against Histone deacetylase 2 [6]; 0.008 µM in assay [7]; greater than 10 µM in [8]; 0.508 µM in assay [9].
For the compound `CC(=O)SCCCCCCCOc1ccc2c(c1)N(C)[C@H](C(C)C)C(=O)N[C@@H](CO)C2`, the Ki in assay [10] stood at 0.0045 µM.
`O=C(NO)c1ccc(/C=N/NC(=O)c2cc(N3CCOCC3)nc(-c3cccc4[nH]ncc34)n2)cc1`: the IC50 came to 0.00834 µM in assay [11] and 0.0346 µM in assay [9].
On to `O=C(O)CC[C@H](NC(=O)Cc1ccc(Br)cc1)C(=O)NCc1ccccc1`, for which the IC50 in [12] came out at 19.6 µM; at Histone deacetylase 8, 3.03 µM. Moreover, the Activity in the assay on A549 [13] was found to be 34%.
For the compound `CCCc1nn(C)c2c(=O)[nH]c(-c3cc(Cc4ccc(C(=O)Nc5ccccc5N)cc4)ccc3OCC)nc12`, the IC50 was 0.673 µM against Histone deacetylase 1 [5], greater than 20 µM against Histone deacetylase 2 [6], 0.114 µM in assay [14] and greater than 20 µM in assay [9].
As to `COc1ccc(CNC(=O)[C@H](CCC(=O)O)NC(=O)Cc2ccc(Br)cc2)cc1`, the figures for the IC50 (in assay [12]; on Histone deacetylase 8) were 6.4 µM and 2.89 µM, respectively. Further, the Activity in the assay with A549 [13] amounted to 34%.
As to `COc1cc([C@@H]2c3cc4c(cc3C[C@H]3COC(=O)[C@@H]32)OCO4)cc(OC)c1OC(=O)CC(=O)Nc1ccc(C(=O)Nc2ccccc2N)cc1`, the IC50 at Histone deacetylase 2 [15] was found to be 0.75 µM; on Histone deacetylase 1 [16], 11 µM; in the assay on A549 [17], 0.037 µM; in the assay on HCT-116 it was 0.04 µM; on Histone deacetylase 3, 5.3 µM.
For the compound `O=C(NO)c1ccc(/C=N/NC(=O)c2cc(N3CCOCC3)nc(-c3cccc(O)c3)n2)cc1`, the results for the half-maximal inhibitory concentration (IC50) in [11] and in assay [9] were 0.0463 µM and 0.0153 µM, respectively.
For the compound `CCN1CCN(c2cc(Nc3ncc(C(=O)Nc4ccccc4N)s3)ncn2)CC1`, the IC50 worked out at 5.79 µM in the assay with DU-145, 16.5 µM in the assay on HepG2, 0.15 µM at Histone deacetylase 1 [18] and 2.56 µM in the assay on K562.
